Data taken from PubChem BioAssay (NCI).
Several values for one entry are separate records, joined by “and”; a condition that tells them apart may be missing. Equal values may be shown once.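 Dose response: 5 concentrations. Exposure: 48 h. Format: 96-well plates. Endpoint: linear interpolation; highest concentration if not reached. GI50 is the concentration that inhibits growth by half. TGI: concentration producing complete growth inhibition.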

System: MDA-MB-468 breast
Test: NCI-60 cell line screen, 48 h

Row | SMILES | GI50 | TGI
1 | N#C[Se]CCN1C(=O)c2ccccc2C1=O | 2.01 µM | 6.99 µM
2 | COc1ccc(-n2c(=O)c3ccccc3n(Cc3ccc(C(=O)NO)cc3)c2=O)cc1 | 1.44 µM | 3.49 µM
3 | O=C1C[C@@H]2OCC=C3C[N+]4([O-])CC[C@]56c7ccccc7N1[C@H]5[C@H]2[C@H]3C[C@@H]64 (some centres not stated) | > 100 µM | > 100 µM
4 | CC1=C(C(=O)Nc2ccc3[nH]ncc3c2)C(c2ccc(F)cc2)N=C(c2ccc(C(F)(F)F)nc2)N1 (configuration not stated) | 5.65 µM | 15.5 µM
5 | FC(F)(F)c1cccc(CNC2CCN(CCc3ccccc3)CC2)c1 | 13.5 µM | 30.2 µM
6 | COc1ccc(Cn2c(Br)c3c(c2-c2cc(OC)c(OC)c(OC)c2)CCc2sc(N)nc2-3)cc1 | 3.13 µM | 41.9 µM
7 | COc1cc(NC(=O)COc2ccccc2)c(C(N)=O)cc1OC | 0.848 µM | 72.1 µM
8 | COc1cc(/C=C/c2cc(/C=C/c3ccc(O)c(OC)c3)n(C(=O)Nc3ccc(C)cc3)n2)ccc1O | 0.301 µM | 1.71 µM
9 | CCOC(=O)C#Cc1c(C(=O)OCC)nnn1[C@@H]1O[C@H](COC)[C@@H](OC)[C@H]1OC | 2.13 µM | 5.43 µM
10 | O=C(O)CSc1cc(NS(=O)(=O)c2ccc(Br)cc2)c2ccccc2c1O | 1.87 µM | 4.34 µM
11 | CN1CCN(C(=O)/C=C/c2ccc([N+](=O)[O-])o2)CC1 | 12.1 µM | 28.5 µM
12 | CCN1CCN(c2ccc(NC(=O)Nc3ccc4c(ccn4-c4ccnc(C(=O)NC)c4)c3)cc2C(F)(F)F)CC1 | > 14.3 µM | > 14.3 µM
13 | O=C1NC(=NCc2cccs2)O/C1=C\c1ccc2ncccc2c1 | 3.41 µM | 13.9 µM
14 | COc1ccc([C@@H]2[C@@H](Oc3ccccc3)C(=O)N2c2cc(OC)c(OC)c(OC)c2)cc1F | 0.111 µM | > 100 µM
15 | COc1ccc(-c2c(Nc3ccccn3)nc3c(C4=CCCCC4)c(-c4ccccc4)[nH]n3c2=O)cc1 | 1.91 µM | 8.65 µM
16 | C/C(=C\c1csc(C)n1)[C@@H]1C[C@@H]2O[C@]2(C)CCC[C@H](C)[C@H](O)[C@@H](C)C(=O)C(C)(C)[C@@H](O)CC(=O)N1 | 0.000233 µM | 0.00058 µM
17 | O=[N+]([O-])c1ccc(N/N=C\c2cc(Br)ccc2O)nc1 | 1.71 µM | 4.32 µM
18 | CNCc1cccc2c1OCCOCCOCCNS(=O)(=O)c1ccc(cc1)-c1cnc(N)c(n1)C(=O)N2 | 1.51 µM | 3.25 µM
19 | CN1CCN(c2ccc(NC(=O)Nc3ccc4c(ccn4-c4cccc(C(N)=O)n4)c3)cc2C(F)(F)F)CC1 | 4.3 µM | 12.1 µM
20 | O=c1c(Oc2ccc(F)cc2F)cc2cnc(NC3CCOCC3)nc2n1C1CC1 | > 25 µM | > 25 µM
21 | CN(C)CCCC1(c2ccc(F)cc2)OCc2cc(-c3csc4ccccc34)ccc21 (configuration not stated) | 1.54 µM | 3.12 µM

Row | SMILES | GI50 | TGI
22 | O=C(NO)c1ccc(CNc2cccc3nc(C4CC4)n(-c4ccccc4)c(=O)c23)cc1 | 1.88 µM | 5.16 µM
23 | Nc1cc(C(F)(F)F)c(-c2nc(N3CCOCC3)nc(N3CCOCC3)n2)cn1 | 0.18 µM | 0.897 µM
24 | Oc1ccc(CSc2nnc(-c3ccccc3)n2-c2ccccc2)c2cccnc12 | 0.497 µM | 6.82 µM
25 | COc1ccccc1CNCCCN1C(=O)c2ccc3c4c(ccc(c24)C1=O)C(=O)N(CCCNCc1ccccc1OC)C3=O | 0.138 µM | 0.288 µM
26 | O=S(=O)(Nc1ccccc1)c1ccc(C2CC3(Cl)C(Cl)=C(Cl)C2(Cl)C3(Cl)Cl)cc1 (configuration not stated) | 2.64 µM | 7.86 µM
27 | CNS(=O)(=O)Nc1nccc(Cc2c(C)c3ccc(Oc4ncccn4)cc3oc2=O)c1F | 3.46 µM and > 5.44 µM | 82.6 µM and > 10 µM
28 | CC[C@]12C=CCN3CC[C@@]4(c5ccc(OC)cc5N(C)[C@H]4[C@@](O)(C(=O)OC)[C@@H]1OC(=O)CCCN1CCN(CCCC(=O)O[C@@H]4[C@]5(CC)C=CCN6CC[C@@]7(c8ccc(OC)cc8N(C)[C@H]7[C@@]4(O)C(=O)OC)[C@@H]65)CC1)[C@@H]32 | 0.252 µM | 0.73 µM
29 | CN(C)[C@@H]1C(=O)C(C(=O)NCc2nc3[nH]cnc(=S)c3[nH]2)=C(O)[C@@]2(O)C(=O)C3=C(O)c4c(O)cccc4[C@@](C)(O)[C@H]3C[C@@H]12 | 0.955 µM | > 100 µM
30 | Oc1c(Br)cc(Cl)cc1C(c1cc(Cl)cc(Br)c1O)C(Cl)(Cl)Cl | 2.2 µM | 7.25 µM
31 | COc1cc(/C=C/C(=O)c2nc3cc(F)ccc3nc2C)cc(OC)c1OC | 2.75 µM | > 100 µM
32 | CN(C)c1ccc(/C=N/N=C(\C#N)[S][Sn]([Cl])([c]2ccccc2)[c]2ccccc2)cc1 | 0.48 µM | 2 µM
33 | O=C(CCN1CCOCC1)Nc1ccc(Cn2nnc3c2C(=O)c2nnn(Cc4ccc(NC(=O)CCN5CCOCC5)cc4)c2C3=O)cc1 | 0.257 µM | 0.627 µM
34 | O=C1[C@H](Cc2ccc(O)cc2)N2C(=O)CCN(C(=O)NCc3ccccc3)[C@H]2CN1Cc1cccc2ccccc12 | 5.66 µM | 23.2 µM
35 | CC(C)c1ccc2c(c1)CCC1C2CCCC1(C)NCc1ccccc1 (configuration not stated) | 1.9 µM | 4.16 µM
36 | Oc1ccc(CSc2nnc(-c3ccc(Oc4ccccc4)cc3)o2)c2cccnc12 | 1.76 µM | > 100 µM
37 | Cc1ccc(-c2nc([P+](c3ccccc3)(c3ccccc3)c3ccccc3)c(N3CCOCC3)o2)cc1 | 0.248 µM | 0.87 µM
38 | Cc1cccc(Oc2ccc(Nc3ncnc4ccc(NC(=O)CN(C)C)cc34)cc2Cl)c1 | 0.18 µM | 1.38 µM
39 | CCN(CC)CCn1c2ccc(O)cc2c2sc3cc(OC)ccc3c(=O)c21 | 1.54 µM | 3 µM
40 | CCN1CCN(CC(=O)Nc2nc3ccc(NCc4ccc(Br)cc4)cc3s2)CC1 | 1.74 µM | 4.51 µM
41 | OCc1ccc(N2CCc3ccc(F)cc3C2)cc1Cl | < 0.0129 µM | 0.0351 µM
